According to patent US20040171795A1, “Novel peptides” (priority 2000, published 2004):

What was measured:
[1] = Measurement of turbidity in BSA; type: physicochemical; details: BSA 1%, peptide 50 μM, absorbance at 600 nm
Procedure: The solutions were evaluated for their absorbance at a wavelength of 600 nm by using a spectrophotometer (DU640, manufactured by Beckman).

21mer oligonucleotide = assay: Binding ability to oligonucleotide (electrophoresis); details: charge ratio (+/−ratio) of 10
Procedure: The 21mer oligonucleotide prepared by the procedure described in Example 6 (final concentration, 6.7 μM) and the peptide prepared by the procedure described in Examples 1 to 3 were mixed in 20 mM Tris-HCl buffer (pH=7.2) containing 150 mM NaCl at a charge ratio (+/−ratio) of 0 to 10, and the mixture was allowed to stand at 37° C. for 30 minutes. Next, 7.5 μL of this solution was mixed with an equal amount of Tris-borate buffer (pH=8.2) containing 80% formamide, and electrophoresis was conducted on 25% polyacrylamide gel containing 7M urea. After the electrophoresis, the gel was stained with 5% aqueous solution of Stains all (manufactured by Funakoshi) containing 50% formamide and washed with water to thereby determine the binding of the oligonucleotide and the peptide.
The +/−ratio (charge ratio) indicated in FIG. 10 is the ratio of the number (+) of the positively-charged groups in the peptide to the number (−) of negatively-charged groups in the nucleic acid. As evident in FIG. 10, the amount of oligonucleotide that became bound to the peptide increased with the increase in the charge ratio (+/−ratio), and the oligonucleotide was fully bound to the peptide at a charge ratio (+/−ratio) of 10. The peptides of SEQ ID NO:2 to SEQ ID NO:24 were also found to bind at a charge ratio (+/−ratio) of 10.

nuclease Bal 31 = assay: Nuclease resistance-imparting ability for P=O form oligonucleotide; type: biochemical; details: 2 U Bal 31, 30° C., 60 minutes, peptide 50 μM, oligonucleotide 3 μM
Procedure: Nuclease resistance-imparting ability for natural (P═O form) oligonucleotide was evaluated. To be more specific, 2 U of nuclease Bal 31 (manufactured by Takara Shuzo) was added to 20 mM Tris-HCl buffer (pH=8) containing 50 μM of the peptide of SEQ ID NO:1 prepared in Example 1, 3 μM of P═O form oligonucleotide prepared in Example 6, 150 mM NaCl, 12 mM MgCl2, and 12 mM CaCl2, and the reaction was allowed to take place at 30° C. for 60 minutes. Next, the oligonucleotide which escaped from the decomposition was extracted with phenol/chloroform, and subjected to electrophoresis by the procedure described in Example 8 to stain the oligonucleotide.

[2] = Affinity by surface plasmon resonance (Biacore 2000), flow cell 2; type: binding; details: SPR, HPA chip, 0.1 mg/mL BSA; compared with flow cell 1
Procedure: The specific affinity of the peptide for phosphatidyl serine was evaluated by means of surface plasmon resonance (SPR) using Biacore 2000 (manufactured by Biacore). To be more specific, phosphatidyl choline was immobilized on flow cell 1, and 50% of phosphatidyl serine and 50% of phosphatidyl choline were immobilized on flow cell 2 of HPA chip (manufactured by Biacore), and ability of the peptide to bind to the phospholipid was evaluated in the presence of 0.1 mg/mL BSA to thereby evaluate the affinity.

Vero = assay: Luciferase plasmid introduction versus phosphatidyl serine translocation; type: cell-based, monkey
Description: (§1) A cell line established from monkey kidney (Vero cell) and a human bladder cancer cell (T24 cell) purchased from American Type Culture Collection (ATCC) and human lung cancer cell (A549 cell) purchased from Dainippon Pharmaceutical were inoculated on a 24 well culture plate (manufactured by NALGEN NUNC) at 1×10^5 cells/well. Vero cell and A549 cell were cultivated in DMEM (manufactured by Life Technologies Oriental) supplemented with 10% fetal bovine serum (hereinafter referred to as FBS, manufactured by NICHIREI), and T24 cell was cultivated in McCoy's 5a (manufactured by Life Technologies Oriental) supplemented with 10% FBS in 5% CO2 atmosphere at 37° C. for 24 hours. […] The luciferase activity expressed in the cell was then measured by the method instructed in luciferase assay system (manufactured by Promega). […] 20 μL of this cell lysate and 100 μL of the Luciferase Assay Reagent II attached to the kit was added to a fluorescence-measuring plate (Microlite™ 1 plate, manufactured by Dynatech), and after mixing, fluorescence was measured for 1 second by using a multilabel counter (ARVO™ SY1420 MULTILABEL COUNTER, manufactured by Wallac Beltold. […]

A549 = assay: as above; type: cell-based, human
Description: as §1

T24 = assay: as above; type: cell-based, human
Description: as §1

Substance: SEQ ID NO: 1: peptide having the amino acid sequence of SEQ ID NO:1, made by solid phase synthesis (TRYLRIHPRSWVHQIALRLRYLRIHPRSWVHQIALRS; synthetic peptide using an automatic peptide synthesizer)
- OD 600 [1]: 0.03
- binding of oligonucleotide to the peptide (21mer oligonucleotide): fully bound
- nuclease resistance-imparting ability for natural (P═O form) oligonucleotide (nuclease Bal 31): found to exhibit nuclease resistance-imparting ability
- binding to flow cell 2 (50% phosphatidyl serine, 50% phosphatidyl choline) [2]: stronger
- Luciferase activity (Vero): 2.5 × 10^6 cps/mg protein
- Luciferase activity (A549): 8.7 × 10^4 cps/mg protein
- Luciferase activity (T24): 7.8 × 10^3 cps/mg protein
